Experimental data as given in article PMC6973020, “Quinoline‐Conjugated Ruthenacarboranes: Toward Hybrid Drugs with a Dual Mode of Action” (Chemmedchem, 2019).
Entries after “also recorded” stand apart in the source; their conditions may differ.

How the values were obtained:
A375 human skin melanoma = experiment: Crystal violet (CV) cell viability assay, A375; type: cell-based; conditions: 72 h
Excerpt: (§1) Thus, care must be taken when comparing their biological activities with those of our previous studies, even with the same cell line, because the covalent vs. non‐covalent combination of drugs might imply different mechanisms of action in the cell.44 Here, we studied the in vitro activity of ruthenacarborane 3, i. e. free acid, and its 8‐hydroxyquinolyl (4) and 4‐{(7‐chloroquinolin‐4‐yl)oxy}butanol‐1‐yl (5) esters, against a panel of cancer cell lines (B16 mouse melanoma, A375 human skin melanoma, MCF‐7 human breast adenocarcinoma, LN229 human glioblastoma, U251 human glioma). Human fibroblast cell line MRC‐5, murine microglial cell line BV‐2 as well as peritoneal exudate cells (Mph), were chosen as models for non‐malignant cells. […] On the other side, we wanted to assess the reproducibility of the viability data, under either controlled (with BSA) or uncontrolled (without BSA) conditions, in two sets of independent assays. […] Cells were exposed to 3–5 for 72 h, after which cell viability was determined via 3‐(4,5‐dimethylthiazol‐2‐yl)‐2,5‐diphenyltetrazolium bromide (MTT) and crystal violet (CV) assays, in parallel (Table 2). Cisplatin was also tested as reference.
(§2) Preparation of drug solutions. […] Stock solution of cisplatin was prepared in DMF (10 mM) immediately before use. A stock solution of BSA in PBS was prepared at 1.28 mM concentration, and stored at 4 °C in the dark. […] Alternatively, 3 or 4 (DMSO stock solution) were added to the BSA solution in PBS, always with a 10 : 1 molar ratio of BSA to ruthenacarborane. The BSA−ruthenacarborane solutions were incubated 0.5–1 h at room temperature, then diluted with cell culture medium to the desired final concentrations. Final concentrations of 3 and 4 were the same as for the BSA‐free formulation. Final DMSO was 0.02–0.5 vol %.
(§3) Colorimetric assays for cellular viability. […] For counting the number of attached (viable) cells, cells were fixed with 4 % (w/v) paraformaldehyde for 10 min at room temperature, and subsequently stained for 15 min with […] crystal violet (CV) solution. Cells were then washed with tap water, dried in air, and the CV dye was dissolved in 33 % (w/v) acetic acid solution. For the detection of mitochondrial respiration, cells were cultivated in MTT staining solution (0.5 mg mL^−1) for approximately 1 h. The dye was then discarded, and the formed formazan (purple) was dissolved in DMSO. The absorbance was measured with an automated microplate reader at λmax 540 nm, with the reference λmax 670 nm. Untreated cells or cells treated only with BSA (control) were also measured, as reference for BSA‐free and BSA‐containing drug formulations, respectively. […] Cell viability is expressed as percentage (%) relative to control (untreated cultures).58 Experiments were run in three independent replicates. […]

B16 mouse melanoma = experiment: MTT cell viability assay, B16; type: cell-based; conditions: 72 h
Excerpt: as §1, §2, §3

U251 human glioma = experiment: Crystal violet (CV) cell viability assay, U251; type: cell-based; conditions: CV assay, 72 h; read-out: IC50 U251
Excerpt: as §1, §2
(§4) Colorimetric assays for cellular viability. […] For counting the number of attached (viable) cells, cells were fixed with 4 % (w/v) paraformaldehyde for 10 min at room temperature, and subsequently stained for 15 min with […] crystal violet (CV) solution. Cells were then washed with tap water, dried in air, and the CV dye was dissolved in 33 % (w/v) acetic acid solution. For the detection of mitochondrial respiration, cells were cultivated in MTT staining solution (0.5 mg mL^−1) for approximately 1 h. The dye was then discarded, and the formed formazan (purple) was dissolved in DMSO. The absorbance was measured with an automated microplate reader at λmax 540 nm, with the reference λmax 670 nm. Untreated cells or cells treated only with BSA (control) were also measured, as reference for BSA‐free and BSA‐containing drug formulations, respectively. For determination of the role of autophagy specific inhibitors, CQ or 3‐MA, were applied at a concentration of 20 μM and 0.5 mM, respectively, and the cells were stained with CV dye. Cell viability is expressed as percentage (%) relative to control (untreated cultures).58 Experiments were run in three independent replicates. […] Non‐linear regression analyses of the obtained results was done using GraphPad Prism software to calculate IC50 values.
(§5) mouse microglial cell line BV‐2 was a kind gift from Dr. Irena Lavrnja, Institute for Biological Research
(§6) “Siniša Stanković” (University of Belgrade).

LN229 human glioblastoma = experiment: Crystal violet (CV) cell viability assay, LN229; type: cell-based; conditions: CV assay, 72 h; read-out: IC50 LN229
Excerpt: as §1, §2, §4, §5, §6

[1] = Stability in water‐containing DMSO‐d6 (NMR spectroscopy); type: physicochemical; conditions: in air, 1H and 11B{1H} NMR, over one month
Procedure: NMR spectroscopy. To determine the stability in biocompatible organic solvents, 3–5 (each ca. 3 mg) were dissolved in water‐containing DMSO‐d6 (0.6 mL) in air at room temperature, and periodically frozen (4–5 °C) and unfrozen. The solutions were analyzed with ^1H and ^11B{^1H} NMR spectroscopy over a period of one month.

MCF‐7 cells = experiment: Wound healing assay, MCF‐7; type: cell-based, human; conditions: MCF‐7, 20 μM, 72 h

With “closo ‐[3‐(η^6‐p‐Cymene)‐1‐(quinolin‐8‐yl‐acetate)‐3,1,2‐RuC2B9H10] [Compound 4]” the IC50 (A375 human skin melanoma) was 14.9 ± 2.1 µM, the IC50 (B16 mouse melanoma) was 20.4 ± 2.1 µM and the IC50 (U251 human glioma) was 45.1 ± 0.8 µM. The IC50 (LN229 human glioblastoma) was 33.4 ± 3.5 µM, the “stability in water‐containing DMSO‐d6 solution” value [1] was “stable; also recorded: sufficient chemical stability” and the “cell migration (wound healing assay, in words)” value (MCF‐7 cells) was “inhibited cell migration”.

“closo‐ [Compound 3, closo‐ [3‐(η^6‐p‐Cymene)‐1‐(CH2COOH)‐3,1,2‐RuC2B9H10]]” showed an IC50 (A375 human skin melanoma) of 18.7 ± 1.8 µM, an IC50 (B16 mouse melanoma) of 19.4 ± 0.9 µM and an IC50 (U251 human glioma) of over 100 µM. For the same substance, the IC50 (LN229 human glioblastoma) was 80 ± 7.7 µM, the “stability in water‐containing DMSO‐d6 solution” value [1] was “stable; also recorded: sufficient chemical stability” and the “cell migration (wound healing assay, in words)” value (MCF‐7 cells) was “inhibited cell migration”.
